This note sets out measurements from PubChem BioAssay AID2305 (GlaxoSmithKline (GSK), 2010).

The assay has as its system P. falciparum 3D7 growth, pLDH absorbance. Kind of assay: P. falciparum 3D7 growth inhibition, dose response, strain 3D7 (AID 2305).

Turning to `CC(C)(C)c1cc(CN2CCN(Cc3ccccc3)CC2)cc(C(C)(C)C)c1O`, the IC50 (in general, the point on the concentration scale where inhibition reaches its midpoint) was found to be 770 nM.
Compound `COCCOCCOCCn1ccc2c3c(N)nc(N)nc3ccc21` had an IC50 of 260 nM.
Take `COc1ccc(CC2(c3ccc(F)cc3)N=C(N)N(CCCc3ccccc3)C2=O)cc1` (stereo not given): the IC50 turned out to be 610 nM.
In turn, `Clc1ccc(OCCC2CCN(CCCCCCCN3CCC(CCOc4ccc(Cl)c(Cl)c4)CC3)CC2)cc1Cl` came in with an IC50 of 620 nM.
For `COc1ccc2c(NN=CC=Cc3ccccc3)ccnc2c1` the value was 770 nM.
`Cc1cccc(C)c1N1CCN(C2CCC(NC(=O)/C=C/c3ccccc3)CC2)CC1` (stereo not given) showed an IC50 of 1180 nM.
The compound `O=C(c1cc(-c2ccccc2)n[nH]1)N1CCN(S(=O)(=O)c2ccc(Cl)s2)CC1` had an IC50 of 930 nM.
In turn, `Nc1ncc(-c2cn[nH]c2)cc1-c1nc2ccc(Cl)cc2[nH]1` gave an IC50 of 800 nM.
Under `CC(Sc1nc(-c2ccccc2)c(-c2ccccc2)o1)C(=O)NC1CC1` (stereo not given) stands 840 nM; under `COc1ccc(NC(=O)[C@H](CC(C)C)Nc2cc(C)nc(NCCc3ccccc3OC)n2)cc1`, 990 nM.
Consider `NS(=O)(=O)c1cccc(Br)c1`, for which the IC50 amounted to 890 nM.
For `CC[C@H]1CN2CC[C@H]1C[C@H]2[C@H](O)c1cc(-c2ccc(SC)cc2)nc2ccc(OC)cc12` the value was 60 nM.
The compound `Cc1nc2nc(N)nc(N)c2c(C)c1Cc1ccccc1Br` had an IC50 of 60 nM.
Under `CC(C)(C)C1CC(=O)C[C@@H]2C(=O)N(c3ccc(Br)cc3)C(=O)[C@H]12` (stereo not given in full) stands 930 nM; under `O=C(/C=C/c1ccc(Cl)c(Cl)c1)NC1CCN(Cc2cccc(O)c2)CC1`, 880 nM; under `O=C(/C=C/c1ccsc1)NC1CCC(CN2CCC(c3c[nH]c4ccccc34)CC2)CC1` (stereo not given), 1120 nM.
`COc1ccccc1C1CCN(CCCCNC(=O)c2ccc(NC(=O)c3ccc(Cl)cc3)cc2)CC1` registered an IC50 of 240 nM.
For `O=C(/C=C/c1ccc(C(F)(F)F)cc1)NCCCCCN1CCN(C(=O)Nc2ccc(Cl)c(Cl)c2)CC1` the value was 870 nM; for `C#CCNCc1ccc(-c2ccc(-c3nc4ccc(C(F)(F)F)cc4[nH]3)s2)cc1`, 740 nM; for `CC(C)[C@H](NC(=O)c1ccc(O)c(-c2ccc(Cl)c(Cl)c2)c1)C(=O)NCCN1CCCC1`, 930 nM.
For `COc1ccc(F)cc1-c1ccc(C(=O)N2CCCN(c3ccc(C#N)cn3)CC2)cc1` the value was 110 nM; for `FC(F)(F)c1ccc2c(NN=Cc3cccc(Cl)c3)ccnc2c1`, 840 nM.
Under `Cn1ccnc1CCC(=O)Nc1ccc(Cl)cc1C(=O)Nc1ccc(Cl)cc1` stands 1560 nM; under `O=C1CCCN1CCCNCc1ccc(-c2cccc(-c3nc4ccc(F)cc4[nH]3)c2)cc1`, 660 nM; under `CNC(=O)c1cc(Nc2nnc(-c3ccc(C)c(S(=O)(=O)NC4CCCCC4)c3)c3ccccc23)ccc1OC`, 900 nM.
As for `O=C(/C=C/c1ccc(C(F)(F)F)cc1)NCCCCCN1CCCN(C(=O)Nc2cccc(Cl)c2)CC1`, the IC50 was determined as 990 nM.
For `O=C(CNC1=NCCN1)Nc1ccc(NC(=O)Nc2ccc(NC(=O)CNC3=NCCN3)cc2)cc1` the value was 780 nM; for `CC(C)(C)N1CCC(N(Cc2ccc(-c3ccc(C(F)(F)F)cc3)cc2)C(=O)Cn2c(CCc3cccc(F)c3F)nc(=O)c3cccnc32)CC1`, 760 nM; for `CCC[C@@H]([C@@H](CC1CCCCC1)C(=O)N[C@H](C(=O)Nc1nccs1)C(C)(C)SCCNC(=O)OCC)N(O)C=O`, 80 nM.
Consider `Cc1cccc2[nH]c(-c3ccc(-c4ccc(CN5CCCC(N)C5)cc4)cc3)nc12` (stereo not given), for which the IC50 was 350 nM.
For `CN(C)CCC=C1c2ccccc2Sc2c(O)cc(Cl)cc21` the value was 280 nM; for `c1cc(CN2CCN(CCN3CCOCC3)CC2)cc(-c2ccc(-c3nc4ccccc4[nH]3)cc2)c1`, 130 nM.
Under `COc1cccc(CN2CCC(CCOC(c3ccccc3)c3ccc(Cl)cc3)CC2)c1O` (stereo not given) stands 710 nM; under `CC(Cc1ccc(-c2nc3ccccc3[nH]2)cc1)NCC(O)c1cccc(C(F)(F)F)c1` (stereo not given), 350 nM; under `CO/C(=C\C=C\c1cc2cc(Cl)c(Cl)cc2[nH]1)C(=O)NC1C[C@@H](C)N(C)[C@@H](C)C1` (stereo not given in full), 900 nM.
Under `CC(Cc1ccc(NC(=O)CCNCc2ccccc2)cc1)NCCc1cccc(Cl)c1` (stereo not given) stands 150 nM.
The compound `Cc1cc(F)ccc1-c1nc(NCCCNCCc2ccccc2)nc2c1ccc(=O)n2-c1c(F)cccc1F` returned an IC50 of 190 nM.
In the case of `N[C@@H](Cc1ccc(O)cc1)C(=O)NC(c1ccccc1)c1c(O)ccc2ccccc12` (stereo not given in full), the IC50 amounted to 690 nM.
For `COc1ccc(CC(=O)NC(CCCN2CCC3(CC2)OCc2ccccc23)c2ccc(Cl)c(Cl)c2)cc1` (stereo not given), the IC50 was determined as 1130 nM.
For `CN1CCN(CCCNCc2ccccc2-c2cccc(CNCc3ccc4c(c3)OCO4)c2)CC1` the value was 790 nM; for `CSCCC(C(=O)O)N1C(=O)c2ccccc2C1=O` (stereo not given), 1030 nM.
Under `COc1ccc2ncc(Cl)c(NCC3(O)CCC(NCc4ccc5c(n4)NC(=O)CS5)CC3)c2n1` (stereo not given) stands 600 nM; under `Cc1cccc(-c2nc3[nH]c(=O)cc(NC(=O)C(C)C)n3n2)c1`, 420 nM.
On to `CS(=O)(=O)c1ccc(CNCc2ccc(-c3cccc(-c4nc5ccccc5[nH]4)c3)cc2)cc1`, for which the IC50 is 330 nM.
With `CCN(CC)CCCNc1ncc2c(-c3ccc(NC(=O)Nc4cc(C(F)(F)F)ccc4F)c(F)c3)nn(C)c2n1`, the IC50 came to 270 nM.
For `O=C(Nc1ccc2nc3n(c(=O)c2c1)CCCCC3)C(=O)N1CCN(c2ccc(F)cc2)CC1` the value was 640 nM.
Turning to `O=C(NC1CC1)c1ccc(N2CCCC(COc3ccc4c(c3)CCCC4)C2)nc1` (stereo not given), the IC50 is 1080 nM.
`Cc1[nH]nc2cc(F)c(-c3cc(OC[C@@H](N)Cc4ccccc4)cnc3-c3ccoc3)cc12` gave an IC50 of 1040 nM.
Under `COc1ccc(NC(=O)/C=C/c2ccccc2Cl)cc1OCCN1CCC(N2CCN(C)CC2)CC1` stands 490 nM; under `COc1ccc2ncc(Cl)c(N3CCC(CCNCc4ccc5c(n4)NC(=O)CS5)CC3)c2c1`, 960 nM; under `O=[N+]([O-])c1cccc(NC(=S)N2CCCN(Cc3ccc(Cl)cc3Cl)CC2)c1`, 930 nM.
Under `CC(C)CN1CCCN(Cc2cccc(NC(=O)c3cc4ccccc4s3)c2)CC1` stands 1770 nM; under `Cc1cc(C2CCN(CCCCNC(=O)c3ccc(-c4ccc(C#N)cc4)cc3)CC2)c(C)cc1OCCO`, 810 nM; under `CN1CCN(CCCN(Cc2cccc(-c3ccc(CNCCc4ccccc4)cc3)c2)C(=O)Nc2ccccc2)CC1`, 830 nM.
`O=C(Nc1cccc(CN2CCCN(Cc3ccsc3)CC2)c1)c1cc2ccccc2s1` showed an IC50 of 760 nM.
Under `CCNc1cc(C(=O)N[C@@H](Cc2ccccc2)[C@H](O)CNC(C)(C)Cc2cccc(OC)c2)cc(N2CCCC2=O)c1` stands 710 nM; under `COc1ccc(NC(=O)/C=C/c2ccccc2Cl)cc1OCCN1CCC(NCc2cccnc2)CC1`, 760 nM.
The compound `CC(=O)Nc1ccc(CN2CCC(CNC(=O)c3cc(-c4cccc(Cl)c4)cs3)C2)cc1` (stereo not given) yielded an IC50 of 1120 nM.
For `Oc1ccc(CN2CCC(NCc3cccc4ccccc34)CC2)cc1` the value was 1200 nM; for `CCc1ccc(NC(=O)N(CCCN2CCN(C)CC2)Cc2csc(-c3ccc(CNCc4ccccc4)cc3)n2)cc1`, 1010 nM; for `OC1(C(F)(F)F)CC(c2ccccc2)=NN1c1nncc(-c2ccccc2)n1` (stereo not given), 730 nM.
In the case of `c1ccc2c(Nc3ccc(Oc4ccc(Nc5c6ccccc6nc6ccccc56)cc4)cc3)c3ccccc3nc2c1`, the IC50 is 520 nM.
For `COc1ccc(NC(=O)Nc2cccc(-c3cccc(-c4nc5ccccc5[nH]4)c3)c2)cc1` the value was 310 nM; for `CC(C)C[C@H](Nc1ccnc(NCC2CCCCC2)n1)C(=O)Nc1ccccc1`, 1430 nM; for `CCN(CC)CCNc1cc(C)nc(/N=C(\N)Nc2ccc(Cl)cc2)n1`, 130 nM.
In turn, `c1ccc(-n2ncc(CNCc3ccc(-c4cccc(-c5nc6ccccc6[nH]5)c4)cc3)n2)cc1` displayed an IC50 of 1230 nM.
`CC(C)CNC(=O)c1cncc(-c2ccc(CNC3Cc4ccccc4C3)cc2)c1` registered an IC50 of 700 nM.
Under `Cc1cccc(Cl)c1S(=O)(=O)Nc1cccc(CCN2CCC(N3CCCCC3)CC2)c1` stands 1110 nM.
On to `Cc1ccc2nc(-c3ccccc3Nc3ccnc4cc(-c5nccs5)ccc34)[nH]c2c1`, for which the IC50 amounted to 190 nM.
Under `CCOc1cc(C(=O)Nc2ccc(-c3nc4ccccc4[nH]3)cc2)cc(OCC)c1OCC` stands 230 nM.
Under `O=C(Nc1ccc(-c2ccc(-c3nc4ccccc4[nH]3)s2)cc1)Nc1ccc(Cl)c(Cl)c1` stands 160 nM.
For `OCC1CCN(Cc2ccc(-c3ccc(-c4nc5ccc(C(F)(F)F)cc5[nH]4)s3)cc2)CC1` the value was 480 nM.
In the case of `COc1nc2c(CCN3CCC(NCc4ccc5c(n4)NC(=O)CO5)CC3)c(Cl)cnc2cc1F`, the IC50 stood at 420 nM.
In the case of `COc1cc(C(=O)N2CCOC(CCN3CCC[C@H]3C(=O)Nc3ccccc3)(c3ccc(Cl)c(Cl)c3)C2)cc(OC)c1OC` (stereo not given in full), the IC50 came out at 730 nM.
For `O=C(Nc1ccc2c(c1)CCC2)c1cccc(N2CCN(c3ccncc3)CC2)c1` the value was 970 nM; for `O=C(Nc1cccc(CN2CCCN(Cc3cccc(Cl)c3)CC2)c1)c1ccc(Cl)c(Cl)c1`, 990 nM.
For `CN1CCCC(CN2CCN(Cc3cccc(-c4ccc(-c5nc6ccccc6[nH]5)s4)c3)CC2)C1` (stereo not given) the value was 150 nM.
Under `O=C(/C=C/c1ccc(Cl)c(Cl)c1)NCCCCN1CCCN(C(=O)Nc2ccc(C(F)(F)F)cc2)CC1` stands 850 nM; under `N#CCSc1nnc(-c2ccccc2)c2ccccc12`, 720 nM.
In turn, `CN(Cc1ccccc1)C1CCN(c2cc(NC(=O)c3cccc(F)c3)ccn2)CC1` registered an IC50 of 1510 nM.
For `CC(CNCc1cn(Cc2cc(Br)cc(Br)c2)c2ccccc12)CNc1cc(=O)c2ccccc2[nH]1` (stereo not given) the value was 460 nM; for `COc1ccc2c(NN=Cc3ccc([N+](=O)[O-])cc3)ccnc2c1`, 340 nM.
Under `CCN(CC)CCN(Cc1ccc(-c2ccc(C(F)(F)F)cc2)cc1)C(=O)c1ccc(-c2ccc(NC(=O)OC)cc2C)cc1` stands 930 nM; under `c1ccc(Oc2ccc(Nc3ccnc(Nc4ccc(CN5CCOCC5)cc4)n3)cc2)cc1`, 940 nM.
Turning to `O=C1OC2(CN1CC1CCN(Cc3ccc(-n4ccnc4)cc3)C1)c1ccccc1-c1ccccc12` (stereo not given), the IC50 came to 980 nM.
